Source: patent publication US9877956B2, “Antiviral compounds and methods of use thereof” (Trana Discovery, Inc., priority 2014, dated 2018)
pEC50: −log10 of the molar value. Several values for one entry are separate records, joined by “and”; a condition that tells them apart may be missing. Equal entries are not always repeated.

Columns and labels:
Assay type in all cases: cell-based
[1] = Cytotoxicity in human PBMCs (XTT); conditions: PHA-P stimulated PBMCs pooled from three donors; human PBMCs, XTT
Protocol: (§1) In these studies, PHA-P stimulated PBMCs from three donors were pooled together and re-suspended in fresh tissue culture medium at 1×10^6 cells/mL and plated in the interior wells of a 96 well round bottom microplate at 50µl/well. A 100µL volume of 9 concentrations of compound serially diluted were transferred to the round-bottom 96 well plate containing the cells in triplicate. Fifty microliters (µL) of HIV-1 at a pre-determined dilution was added. Each plate contained cell control wells and virus control wells in parallel with the experimental wells. After 7 days in culture, efficacy was evaluated by measuring the reverse transcriptase in the culture supernatants and the cells were stained with the tetrazolium dye XTT to evaluate cytotoxicity.

[2] = system: HUMAN PBMCS; assay: Cytotoxicity in human PBMCs (XTT); conditions: for TOXICITY VALUES (XTT - O.D. @ 450/650 nm), SAMPLE: individual samples
Protocol: as §1

[3] = system: HIV-1 92/HT/599; assay: HIV-1 92/HT/599 replication in human PBMCs, reverse transcriptase in culture supernatants (RLU)
Protocol: as §1

pEC50 ([3]; Human immunodeficiency virus 1, PBMC, read-out: EC50 (EC 50%), HIV-1 92/HT/599, human PBMCs): > 8.52
Structure (SMILES): Cc1cn([C@H]2C[C@H](N=[N+]=[N-])[C@@H](CO)O2)c(=O)[nH]c1=O [AZT, Zidovudine, reference compound]
CC50 at 7 days [1]: > 1 µM
% Cell Viability ([2]; 0.003 μM): 114.74%
TOXICITY VALUES (XTT - O.D. @ 450/650 nm), SAMPLE ([2]; 0.003 μg/ml (so in the source)): 1.2555 O.D. and 1.2949 O.D. and 1.3058 O.D.
% Cell Viability ([2]; 0.01 μM): 123.74%
TOXICITY VALUES (XTT - O.D. @ 450/650 nm), SAMPLE ([2]; 0.01 μg/ml (so in the source)): 1.2369 O.D. and 1.6369 O.D.
% Cell Viability ([2]; 0.032 μM): 111.47%
TOXICITY VALUES (XTT - O.D. @ 450/650 nm), SAMPLE ([2]; 0.032 μg/ml (so in the source)): 1.2990 O.D. and 1.2908 O.D. and 1.1569 O.D.
% Cell Viability ([2]; 0.32 μM): 92.20%
TOXICITY VALUES (XTT - O.D. @ 450/650 nm), SAMPLE ([2]; 0.32 μg/ml (AZT table)): 0.9607 O.D. and 0.9984 O.D. and 1.1398 O.D.
% Cell Viability ([2]; 1 μM): 81.66%
TOXICITY VALUES (XTT - O.D. @ 450/650 nm), SAMPLE ([2]; 1 μg/ml (AZT table)): 1.1224 O.D. and 0.5742 O.D. and 1.0479 O.D.
TC 25% ([2]; human PBMCs, XTT): >1.0 µM
TC 95% ([2]; human PBMCs, XTT): >1.0 µM
% Virus Control ([3]; 0.003 μM): 28.53%
Antiviral Test Values Mean RLU ([3]; 0.003 μM): 5503.7 RLU
% Virus Control ([3]; 0.01 μM): 10.36%
Antiviral Test Values Mean RLU ([3]; 0.01 μM): 1999.0 RLU
% Virus Control ([3]; 0.032 μM): 13.16%
Antiviral Test Values Mean RLU ([3]; 0.032 μM): 2538.7 RLU
% Virus Control ([3]; 0.32 μM): 0.99%
Antiviral Test Values Mean RLU ([3]; 0.32 μM): 190.7 RLU
% Virus Control ([3]; 1 μM): 0.56%
Antiviral Test Values Mean RLU ([3]; 1 μM): 112.7 RLU
EC 25% ([3]; HIV-1 92/HT/599, human PBMCs): <0.003 µM
EC 95% ([3]; HIV-1 92/HT/599, human PBMCs): 0.0990 µM
